# Measurements published in publication PMC11310113, “Development of a UPLC-MS/MS method for quantifying KPT-335 (Verdinexor) in feline plasma for a study of PK” (Frontiers in Veterinary Science, 2024).
# Read-outs that look alike come from different tables or passages of the source.
# Assays:
# [1] = Pharmacokinetic study of KPT-335 capsules in cats, single oral dose; type: in vivo, cat
# Protocol: The recommended dose of KPT-335 for dogs is 1.5 mg/kg body weight (BW). To calculate the dose for cats, the average weight of the tested cats was substituted in the equation used for dogs, and the recommended dose was 2 mg/kg BW through body surface area (BSA) conversion ([20]). The formula was as follows: […]
# where K is a constant determined for different animal species, such as a dog (11.0) and cat (8.7), and W is the BW (kg) of the animal. Km is approximated by the individual animal species taking the ratio between the mean weight (kg) and BSA (m^2), this value can be calculated using Formula 1. The average weight of the six tested cats was used in BW parameters, the dosage was calculated by Formula 2, and KPT-335 was weighed into capsules and administered to the animals. The cats were fasted for 12 h before and 2 h following drug administration. Potential adverse effects were monitored during the study. The capsules were administered orally as a single bolus to the back of the tongue via a dosing syringe, accompanied by 3–5 mL of water.
# Samples of blood (1 mL) were collected from the brachial cephalic vein at 0.167, 0.333, 0.5, 0.75, 1, 1.5, 2, 4, 6, 8, 12, 24, 36, and 48 h pre- and post-oral dosing into an anticoagulant blood collection tube containig heparin sodium. Blood samples were centrifuged for 8 min at 1800 × g. The plasma layer was taken and divided evenly into two. The plasma samples were stored at −20°C until analysis (within 20 days of collection). For the pharmacokinetic parameters, the blood drug concentration-time data was analyzed by using WinNonlin software (version 8.1, United States). The elimination half-life (T1/2), the maximum plasma concentration of KPT-335 (Cmax), the time when the plasma concentration reached a maximum (Tmax), and the area under the concentration-time curve (AUC) were determined.
# [2] = Stability of KPT-335 in cat plasma samples (UPLC-MS/MS); type: in vitro ADME; conditions: for recovery at 8 h: cat
# Protocol: KPT-335 working solution was added to blank plasma, LQC, MQC, and HQC samples to investigate the room-temperature stability for 2 h, freeze–thaw stability with three times, autosampler stability for 24 h, and long-term stability of 20 days at −20°C. The stability of the stock solution for 20 days was also investigated.
# Given that plasma is mostly neutral or alkaline, to optimize the stability of KPT-335 at room temperature and ensure the desirable result of the sample during the detection process, we carried out further experiments. There were four groups in the experiment. The first group was the normal preparation of the sample, and the second, third, and fourth groups were samples containing 0.01, 0.05, or 0.1% formic acid, respectively. All the samples were placed at room temperature for 12 h and then processed at the same time for detection.
# [3] = set-up: method as in PMID 30143046; conditions: day 14, cited from earlier work; for AUClast (AUC) / HL_Lambda_z / Tmax: dog (n = 4)
# [4] = set-up: method as in PMID 24503695; conditions: healthy beagle dogs (n = 6), single dose 1.5 mg/kg BW p.o. after meals; cited from earlier work
# [5] = cat (n = 6), 2 mg/kg BW p.o., single dose, fasted
# [6] = plasma, cats, single oral dose of capsules 2 mg/kg BW
# [7] = average of all dogs (1.5 and 1.25 mg/kg BW)
smiles,measurement,setting,value
O=C(/C=C\n1cnc(-c2cc(C(F)(F)F)cc(C(F)(F)F)c2)n1)NNc1ccccn1 [KPT-335],AUC_%Extrap_obs,[1]; [5],11.32 ± 6.56%
same,HL_Lambda_z,[1]; [5],5.16 ± 2.30 h
same,MRT last,"[1]; plasma, po, cat (n = 6), 2 mg/kg BW p.o., single dose, fasted",5.46 ± 2.14 h
same,k el,"[1]; plasma, po, cat (n = 6), 2 mg/kg BW p.o., single dose, fasted, read-out: Lambda_z (converted)",4.17e-05 s⁻¹
same,AUC(0-inf),[1]; [6],1590 ± 1000 ng·h/mL
same,AUC(0-t),[1]; [6],1440 ± 965 ng·h/mL
same,Cmax,[1]; [6],240 ± 191 ng/mL
same,Tmax,[1]; [6],1.46 ± 0.51 h
same,half-life,[1]; [6],5.16 ± 2.3 h
same,room temperature stability accuracy,"[2]; acidic plasma (formic acid added), room temperature, 12 h",still acceptable
same,recovery at 8 h,"[2]; plasma, 4°C, read-out: sample recovery",> 80%
same,recovery at 8 h,"[2]; plasma, 8 h at room temperature, read-out: sample recovery rate",59 to 67.5%
same,recovery at 8 h,"[2]; plasma, light-protected, read-out: recovery rate of light-protected samples",60.4 to 63.2%
same,accuracy of stable samples at room temperature,"[2]; plasma containing 0.1% formic acid, room temperature, 12 h",more than 85%
same,room temperature stability accuracy,"[2]; plasma, room temperature, 2 h, all concentrations",met the requirement of ±15%
same,room temperature stability accuracy,"[2]; plasma, room temperature, 8 h",did not meet the requirement of ±15%
same,room temperature stability result,"[2]; plasma, room temperature, 24 h",not within the requirement of ±15%
same,average T1/2,[3]; [7],5 h
same,average Tmax,[3]; [7],5.3 h
same,AUClast (AUC),[3]; 1.25 mg/kg BW p.o.,1576.5 ng·h/mL
same,HL_Lambda_z,[3]; 1.25 mg/kg BW p.o.,5 h
same,Tmax,[3]; 1.25 mg/kg BW p.o.,5.3 h
same,AUClast (AUC),[3]; 1.5 mg/kg BW p.o.,2346.8 ng·h/mL
same,HL_Lambda_z,[3]; 1.5 mg/kg BW p.o.,5 h
same,Tmax,[3]; 1.5 mg/kg BW p.o.,5.3 h
same,AUCINF_obs,[4],1810 ± 216 ng·h/mL
same,AUClast (AUC0-t),[4],1760 ± 223 ng·h/mL
same,Cmax,[4],253 ± 88.3 ng/mL
same,HL_Lambda_z (T1/2),[4],3.88 ± 1.47 h
same,Tmax,[4],3.83 ± 2.71 h
